Patent US20030176390A1, “Methods of treating insulin resistance syndrome and diabetes” (priority 2001, published 2003)
Like-named read-outs stand apart in the source and are kept apart here.

Experiments:
rat adipocytes = assay: In vitro lipolysis assay (antilipolytic activity in rat adipocytes); format: cell-based; details: norepinephrine-stimulated lipolysis, glycerol assayed, 60 min, read-out: Lipo ec50
Procedure: Determination of Antilipolytic Activity in Rat Adipocytes
Isolation of Adipocytes from Epididymal Fat Pads
Adipose tissue is removed from anesthetized rats and rinsed twice in incubation medium (2.09 g sodium bicarbonate and 0.04 g EDTA, disodium salt, in 1 L Krebs buffer). Each rat (300-350 g) yields approximately 4 mL of adipose tissue. The adipose tissue (35 mL) is cut into small pieces with scissors and washed with incubation medium (50 mL). The mixture is poured into the barrel of a 50 mL syringe to which is attached a short piece of clamped tubing instead of a needle. The aqueous phase is allowed to drain. A second wash with incubation medium is passed through the syringe. The tissue is added to 50 mL of collagenase solution (collagenase (90 mg), bovine serum albumin (BSA) (500 mg), and 0.1 M calcium chloride solution (1 mL), in incubation medium (50 mL)) in a 1 L bottle. The mixture is shaken in an environmental at 37° C. for about 60 minutes under an atmosphere of 95% oxygen/5% carbon dioxide to effect digestion of the tissue. The dispersed cells are poured through 2 layers of cheese cloth into a 100 mL plastic beaker. The undigested clumps in the cloth are rinsed once with incubation medium (20 mL). The cells in the beaker are centrifuged in 2 plastic tubes for 30 seconds at room temperature at 300 rpm. The aqueous phase is aspirated from beneath the loosely packed layer of floating fat cells and discarded. The adipocytes are gently poured into a 250 mL plastic beaker containing 100 mL of rinse solution (1 g BSA per 100 mL incubation medium). After gentle stirring the centrifugation step is repeated. Another wash with rinse solution follows. The cells are pooled and their volume is estimated with a graduated cylinder. The adipocytes are diluted in twice their volume of assay buffer (incubation medium (120 mL), BSA (1.2 g), pyruvic acid (13 mg)).
The assay is performed in 20 mL plastic scintillation vials and the total assay volume is 4.2 mL. Assay buffer (2.5 mL), diluted adipocytes (1.5 mL), and a solution of the compound to be tested (12.3 μL) adenosine agonist (12.3 μl; varying concentration) is incubated in the environmental shaker for 15 minutes, then the reaction is started with norepinephrine solution (41.2 μL) (10 nM, in a carrier solution containing water (100 mL), BSA (4 mg), and 0.1 M EDTA (20 μL))and adenosine deaminase (1 μg/mL, 41.2 μl). After sixty minutes in the shaker the reaction is terminated by putting the vials on ice. […] The hard lipid layer is removed by aspiration and the aqueous layer is assayed for glycerol (400 μl of sample). The positive control is done in the absence of any adenosine agonist, substituting water in place of the solution to be tested.

[1] = Rattus norvegicus, Adipocyte, 1 h

SMILES | EC50 (rat adipocytes; [1]) [nM] | melting point | EC50 (rat adipocytes) [nM]
COC[C@H]1C[C@@H](n2cnc3c(N[C@H]4CCN(c5ncc(C(F)(F)F)cc5Cl)C4)ncnc32)[C@H](O)[C@@H]1O [Example 44, (1R,2S,3R,5R)-3-[6-[1-(3-chloro-5-trifluoromethylpyridin-2-yl)pyrrolidin-3(S)-ylamino]-purin-9-yl]-5-methoxymethylcyclopentane-1,2-diol] | 226 | 140 to 143 °C | 
OC[C@H]1C[C@@H](n2cnc3c(N[C@H]4CCN(c5ccc(C(F)(F)F)cc5)C4)ncnc32)[C@H](O)[C@@H]1O [Example 5, (1R,2S,3R,5R)-3-[6-[1-(4-trifluoromethylphenyl)-pyrrolidin-3(S)-ylamino]-purin-9-yl]-5-hydroxymethylcyclopentane-1,2-diol] | 2 | 111 to 114 °C | 
O=C1C[C@H](Nc2ncnc3c2ncn3[C@@H]2C[C@H](CO)[C@@H](O)[C@H]2O)CN1Cc1ccccc1 [Example 6, 4(S)-1-benzyl-4-[9-((1R,2S,3R,5R)-1,2-dihydroxy-5-hydroxymethylcyclopent-3-yl)-9H-purin-6-ylamino]pyrrolidin-2-one] |  |  | 267
Cl.Cl.OC[C@H]1C[C@@H](n2cnc3c(N[C@H]4CCNC4)ncnc32)[C@H](O)[C@@H]1O [Example 26, (1R,2S,3R,5R)-5-hydroxymethyl-3-[6-((3S)-pyrrolidin-3-ylamino)-purin-9-yl]cyclopentane-1,2-diol dihydrochloride] | 178 | 160 °C (dec.) | 
CC(C)OC[C@H]1C[C@@H](n2cnc3c(N[C@H]4CCN(c5cc(C(F)(F)F)ccn5)C4)ncnc32)[C@H](O)[C@@H]1O [Example 50, (1R,2S,3R,5R)-5-isopropoxymethyl-3-[6-[1-(4-trifluoromethylpyridin2-yl)pyrrolidin-3(S)-ylamino]-purin-9-yl]cyclopentane-1,2-diol] | 365 |  | 
C[C@H]1C[C@@H](n2cnc3c(N[C@H]4CCN(c5ccc(C(F)(F)F)cn5)C4)ncnc32)[C@H](O)[C@@H]1O [Example 31, (1R,2S,3R,5S)-5-methyl-3-[6-[1-(5-trifluoromethylpyridin-2-yl)pyrrolidin-3(S)-ylamino]-purin-9-yl]cyclopentane-1,2-diol] | 247 | 114 to 116 °C | 
COC[C@H]1C[C@@H](n2cnc3c(N[C@H]4CCN(c5cc(Cl)ncn5)C4)ncnc32)[C@H](O)[C@@H]1O [Example 46, (1R,2S,3R,5R)-3-[6-[1-(6-chloropyrimidin-4-yl)pyrrolidin-3(S)-ylamino]-purin-9-yl]-5-methoxymethylcyclopentane-1,2-diol] | 92.5 |  | 
COC[C@H]1C[C@@H](n2cnc3c(N[C@H]4CCN(c5ccc(Cl)cc5)C4)ncnc32)[C@H](O)[C@@H]1O [Example 55, (1R,2S,3R,5R)-3-[6-[1-(4-chlorophenyl)-pyrrolidin-3(S)-ylamino]-purin-9-yl]-5-methoxymethylcyclopentane-1,2-diol] | 3.3 | 122 to 125 °C | 
O=[N+]([O-])c1ccc(N2CC[C@H](Nc3ncnc4c3ncn4[C@@H]3C[C@H](CO)[C@@H](O)[C@H]3O)C2)cc1 [Example 37, (1R,2S,3R,5R)-5-hydroxymethyl-3-[6-[1-(4-nitrophenyl)-pyrrolidin-3(S)-ylamino]-purin-9-yl]cyclopentane-1,2-diol] | 2.8 |  | 
OC[C@H]1C[C@@H](n2cnc3c(N[C@H]4CCN(c5cc(C(F)(F)F)ccn5)C4)ncnc32)[C@H](O)[C@@H]1O [Example 34, (1R,2S,3R,5R)-5-hydroxymethyl-3-[6-[1-(4-trifluoromethylpyridin-2-yl)pyrrolidin-3(S)-ylamino]-purin-9-yl]cyclopentane-1,2-diol] | 3.3 | 135 to 137 °C | 
OC[C@H]1O[C@@H](n2cnc3c(N[C@H]4CCN(c5ccc(-c6cccs6)cn5)C4)ncnc32)[C@H](O)[C@@H]1O [Example 18, (2R,3R,4S,5R)-5-hydroxymethyl-2-[6-[1-(5-thiophen-2-ylpyridin-2-yl)-pyrrolidin-3(S)-ylamino]-purin-9-yl]tetrahydrofuran-3,4-diol] | 2.24 |  | 
CC[C@H](C)NC(=O)[C@H]1C[C@@H](n2cnc3c(N[C@H]4CCN(c5ccc(C(F)(F)F)cn5)C4)ncnc32)[C@H](O)[C@@H]1O [Example 61, (1S,2R,3S,4R)-2,3-dihydroxy-4-{6-[1-(5-trifluoromethyl-pyridin-2-yl)-pyrrolidin-3(S)-ylamino]-purin-9-yl}-cyclopentanecarboxylic acid-1(S)-methylpropylamide] | 18 | 215 °C (dec.) | 
OC[C@H]1O[C@@H](n2cnc3c(N[C@H]4CCN(c5cc(Cl)ncn5)C4)ncnc32)[C@H](O)[C@@H]1O [Example 21, (2R,3R,4S,5R)-5-hydroxymethyl-2-[6-[1-(6-chloropyrimidin-4-yl)pyrrolidin-3(S)-ylamino]-purin-9-yl]-tetrahydrofuran-3,4-diol] | 2.43 |  | 
CC(C)NC(=O)[C@H]1C[C@@H](n2cnc3c(N[C@H]4CCN(c5cc(C(F)(F)F)ccn5)C4)ncnc32)[C@H](O)[C@@H]1O [Example 2, (1S,2R,3S,4R)-2,3-dihydroxy-4-[6-[1-(4-trifluormethylpyridin-2-yl)pyrrolidin-3(S)-ylamino]purin-9-yl]cyclopentanecarboxylic acid isopropylamide] |  |  | 10.9

Continued, in another order:

EC50 (rat adipocytes; [1]) [nM] | melting point | SMILES | EC50 (rat adipocytes) [nM]
17.6 | 97 to 99 °C | OC[C@H]1C[C@@H](n2cnc3c(N[C@H]4CCN(c5ccccc5)C4)ncnc32)[C@H](O)[C@@H]1O [Example 39, (1R,2S,3R,5R)-5-hydroxymethyl-3-[6-[1-(phenyl)-pyrrolidin-3(S)-ylamino]-purin-9-yl]cyclopentane-1,2-diol] | 
182 | 119 to 122 °C | OC[C@H]1C[C@@H](n2cnc3c(N[C@H]4CCN(c5nccc6ccccc56)C4)ncnc32)[C@H](O)[C@@H]1O [Example 41, (1R,2S,3R,5R)-5-hydroxymethyl-3-[6-[1-(isoquinolin-1-yl)pyrrolidin-3(S)-ylamino]-purin-9-yl]cyclopentane-1,2-diol] | 
63.5 | 131 to 133 °C | OC[C@H]1C[C@@H](n2cnc3c(N[C@H]4CCN(c5cccc(Cl)c5)C4)ncnc32)[C@H](O)[C@@H]1O [Example 57, (1R,2S,3R,5R)-3-[6-[1-(3-chlorophenyl)-pyrrolidin-3(S)-ylamino]-purin-9-yl]-5-hydroxymethylcyclopentane-1,2-diol] | 
48 | 110 to 112 °C | OC[C@H]1C[C@@H](n2cnc3c(N[C@H]4CCN(c5ccccn5)C4)ncnc32)[C@H](O)[C@@H]1O [Example 35, (1R,2S,3R,5R)-5-hydroxymethyl-3-[6-[1-(pyridin-2-yl)pyrrolidin-3(S)-ylamino]-purin-9-yl]cyclopentane-1,2-diol] | 
4.2 | 118 to 121 °C | OC[C@H]1C[C@@H](n2cnc3c(N[C@H]4CCN(c5ccc(Cl)cn5)C4)ncnc32)[C@H](O)[C@@H]1O [Example 33, (1R,2S,3R,5R)-3-[6-[1-(5-chloropyridin-2-yl)pyrrolidin-3(S)-ylamino]-purin-9-yl]-5-hydroxymethylcyclopentane-1,2-diol] | 
17 | 110 to 111 °C | COC[C@H]1C[C@@H](n2cnc3c(N[C@H]4CCN(c5ccc(Br)cn5)C4)ncnc32)[C@H](O)[C@@H]1O [Example 52, (1R,2S,3R,5R)-3-[6-[1-(5-bromopyridin-2-yl)pyrrolidin-3(S)-ylamino]-purin-9-yl]-5-methoxymethylcyclopentane-1,2-diol] | 
30 |  | OC[C@H]1C[C@@H](n2cnc3c(N[C@H]4CCN(c5ccc6cc(Br)ccc6n5)C4)ncnc32)[C@H](O)[C@@H]1O [Example 42, (1R,2S,3R,5R)-3-[6-[1-(6-bromoquinolin-2-yl)pyrrolidin-3(S)-ylamino]-purin-9-yl]-5-hydroxymethylcyclopentane-1,2-diol] | 
129 |  | OC[C@H]1C[C@@H](n2cnc3c(N[C@H]4CCN(c5ccc(Cl)nn5)C4)ncnc32)[C@H](O)[C@@H]1O [Example 47, (1R,2S,3R,5R)-3-[6-[1-(6-chloropyridazin-3-yl)pyrrolidin-3(S)-ylamino]-purin-9-yl]-5-hydroxymethylcyclopentane-1,2-diol] | 
